Test results taken from US4039666A, “Anticonvulsant phenylsilanes” (Dow Corning Corporation, priority 1976, dated 1977).
Read-outs that look alike come from different tables or passages of the source.

Legend:
mice [1] = assay: Electroshock test (Maximal Electroshock Test, M.E.S.), inhibition of tonic extension of hind limbs; type: in vivo, mice (adult male, Carworth CF 1 strain); settings: for ED50: Mus musculus
Description: The electroshock test procedure was used to determine anticonvulsant activities of diphenylmethylsilanol. Adult male mice (Carworth CF 1 strain) were utilized as test animals. […] Seizure protection was scored as inhibition of tonic extension. Groups of mice (six/group) were dosed orally with varying amounts of diphenylmethylsilanol in a sesame oil suspension. The dosages ranged from 10 to 1000 mg./kg. and the train of electric shocks was applied 2, 4 and 6 hours after dosing. The effective dose to prevent convulsions in half the animals (ED50) was determined at 2, 4 and 6 hours to be 52, 63, 100 mg/kg, respectively, and the 95 percent CI (confidence interval) was 23 to 114 mg./kg.; 27 to 141 mg./kg.; 47 to 212 mg./kg.
The electric shock test procedure was also used to determine anticonvulsant activities of phenylmethyldimethoxysilane. Adult male mice (Carworth CF 1 strain) were utilized as test animals. […] Seizure protection was scored as in Example 1. Groups of mice ten/group) were dosed orally with varying amounts of phenylmethyldimethoxysilane in a sesame oil solution. The dosages ranged from 25 to 200 mg./kg. and the train of electric shocks was applied 1/2, 1, 11/2, 2 and 3 hours after dosing. The effective dose to prevent convulsions in half the animals (ED50) was determined at 1/2, 1, 11/2, 2 and 3 hours to be 52, 86, 64, 82 and 90 mg./kg., respectively. Utilizing the same electroshock test procedure as set forth in the first paragraph of this example, groups of mice (ten/group) were dosed intraperitoneally with varying amounts of phenylmethyldimethoxysilane in a sesame oil solution. The dosages ranged from 25 to 200 mg./kg. and the train of electric shocks was applied 1/2, 1, 11/2, 2 and 3 hours after dosing. The effective dose to prevent convulsions in half the animals (ED50) was determined at 1/2, 1, 11/2, 2 and 3 hours to be 45, 65, 52, 51 and 70 mg./kg., respectively.
The electric shock test used in Example 1 and 2 was used in determining the anticonvulsant activities of several other silanes.
(§1) ^1 The test silane was administered orally in sesame oil vehicle at
^2 M.E.S. - Maximal Electroshock Test - ED50 is dose calculated
to protect 50% of mice from tonic extensor convulsion. The dosages ranged

mice [2] = assay: Protection vs. pentylenetetrazol clonic convulsions; type: in vivo; settings: Table I, 316 mg/kg test compound, oral in sesame oil, pentylenetetrazol 80 mg/kg s.c., n.p. = no protection observed; for responders at 316 mg/kg: Mus musculus, read-out: Protection vs. Pentylenetetrazol (numbers of mice protected from clonic convulsion/number tested) (converted)
Description: as §1
^3 Pentylenetetrazol 80 mg/kg s.c. produces clonic convulsions in 90%
of control mice. Values in table are the numbers of mice protected from
clonic convulsion/number tested when dosed with 316 mg/kg test compound.

mice [3] = assay: Potentiation of hexobarbital sleep time (relative sedative activity); type: in vivo, mice (male, Carworth CF1 strain); settings: Table I; 316 mg/kg test compound oral, 90 minutes before hexobarbital 100 mg/kg i.p.
Description: As a test of relative sedative activity of the various silanes, the ability of each to potentiate the action of hexobarbital was studied. For each silane, two groups of male mice (Carworth CF1 strain) were utilized as test animals. Two groups of mice (six/group) were used, one group was orally dosed with 316 mg./kg. of the test silane in sesame oil carrier 90 minutes before administration of hexobarbital. Hexobarbital was administered by intraperitoneal injection of 100 mg./kg. in saline carrier. The time from loss of the righting reflex to recovery of the righting reflex was recorded as sleep time. Potentiation of hexobarbital of the test silane is the ratio of the mean sleep time by the group of test animals dosed with the silane divided by the mean sleep time of the control group not dosed with silane.
^4 Potentiation of hexobarbital - values are the ratios of sleep time
of animals dosed with 316 mg/kg test compound plus 100 mg/kg hexobarbital
to the sleep times of animals dosed with hexobarbital alone.

Acute oral LD50 = type: in vivo, mice (male, 25 gm.); settings: mouse, in vivo; Table II; male mice, oral in sesame oil, highest dose 5000 mg/kg, observed 14 days, Finney's method; read-out: LD50 (95% Confidence Interval)
Description: (§2) ^1 Male mice, 25 gm. were used. Each compound was
(§3) given orally in sesame oil at doses ranging from
(§4) highest dose was 5000 mg/kg. The mice were
(§5) observed for 14 days and the number of deaths
(§6) was recorded. LD50 values were calculated by […]

mice [4] = assay: Acute oral LD50; type: in vivo, mice (male, 25 gm.); settings: Table II footnote 2; oral in sesame oil, up to 5000 mg/kg, 14 days
Description: as §2, §3, §4, §5, §6

[5] = Table I, oral, sesame oil, 2 hours after dosing, n.p. = no protection observed, read-out: MES ED50
[6] = Table I, oral, sesame oil, 4 hours after dosing, read-out: MES ED50
[7] = Table I, oral, sesame oil, 6 hours after dosing, read-out: MES ED50

SMILES	ED50 (mice [1]; [5]) [mg/kg]	ED50 (mice [1]; [6]) [mg/kg]	ED50 (mice [1]; [7]) [mg/kg]	responders at 316 mg/kg (mice [2]) [%]	Potentiation of Hexobarbital (ratio of sleep time with test compound to hexobarbital alone) (mice [3])	Protection vs. Pentylenetetrazol (numbers of mice protected from clonic convulsion/number tested) (mice [2])	other results
C[Si](O)(O)c1ccccc1 [drawing 10; R1=CH3; X=OH, phenylmethylsilanediol]	80	110	80	33.3	1.8		
C[Si](O)(c1ccccc1)c1ccccc1 [drawing 15]							LD50 at 336 h (Acute oral LD50): > 5000 mg/kg; deaths observed at any dose level used (mice [4]): No deaths were observed
CCO[Si](C)(OCC)c1ccccc1 [drawing 10; R1=CH3; X=OC2 H5]	180	31	220		1.1	n.p.	
CCO[Si](C)(C)c1ccccc1 [drawing 14]							LD50 at 336 h (Acute oral LD50): 5380 mg/kg
C[Si](O)(c1ccccc1)c1ccccc1 [diphenylmethylsilanol]	52	63	100	50	1.5		ED50 (mice [1]; Example 1, oral, sesame oil suspension, 2 hours after dosing, 95 percent CI 23 to 114 mg./kg., six mice/group, read-out: effective dose to prevent convulsions in half the animals (ED50)): 52 mg/kg; ED50 (mice [1]; Example 1, oral, sesame oil suspension, 4 hours after dosing, 95 percent CI 27 to 141 mg./kg., six mice/group, read-out: effective dose to prevent convulsions in half the animals (ED50)): 63 mg/kg; ED50 (mice [1]; Example 1, oral, sesame oil suspension, 6 hours after dosing, 95 percent CI 47 to 212 mg./kg., six mice/group, read-out: effective dose to prevent convulsions in half the animals (ED50)): 100 mg/kg
CCO[Si](CC)(OCC)c1ccccc1 [drawing 10; R1=C2 H5; X=OC2 H5]	150	180	64	66.7	1.8		
CC(C)O[Si](OC(C)C)(OC(C)C)c1ccccc1 [drawing 12; X=OCH(CH3)2]		> 1000	800		2.1	n.p.	MES ED50 (mice [1]; Table I, oral, sesame oil, 2 hours after dosing, n.p. = no protection observed): n.p.
CC(=O)O[Si](C)(OC(C)=O)c1ccccc1 [drawing 10; R1=CH3; X=drawing 11]	200	125	142		1.8	n.p.	
CCO[Si](OCC)(OCC)c1ccccc1 [.phi.Si(OCH2 CH3)3]	170	31	220		2.1	n.p.	LD50 at 336 h (Acute oral LD50): 5140 mg/kg
CCO[Si](C)(C)c1ccccc1 [drawing 8; R1=CH3; R2=CH3; X=OC2 H5]	200	213	350	33.3	> 1.3		
O[Si](c1ccccc1)(c1ccccc1)c1ccccc1 [drawing 9; X=OH]	105	60	110		1.9	n.p.	
CO[Si](C)(OC)c1ccccc1 [phenylmethyldimethoxysilane]	56	50	106	33.3	1.2		ED50 (mice [1]; 0.5 h, Example 2, oral, sesame oil solution, 1/2 hour after dosing, ten mice/group, read-out: effective dose to prevent convulsions in half the animals (ED50)): 52 mg/kg; ED50 (mice [1]; 1.5 h, Example 2, oral, sesame oil solution, 11/2 hours after dosing, ten mice/group, read-out: effective dose to prevent convulsions in half the animals (ED50)): 64 mg/kg; ED50 (mice [1]; ip, 0.5 h, Example 2, intraperitoneal, sesame oil solution, 1/2 hour after dosing, ten mice/group, read-out: effective dose to prevent convulsions in half the animals (ED50)): 45 mg/kg; ED50 (mice [1]; ip, 1.5 h, Example 2, intraperitoneal, sesame oil solution, 11/2 hours after dosing, ten mice/group, read-out: effective dose to prevent convulsions in half the animals (ED50)): 52 mg/kg; ED50 (mice [1]; ip, Example 2, intraperitoneal, sesame oil solution, 1 hour after dosing, ten mice/group, read-out: effective dose to prevent convulsions in half the animals (ED50)): 65 mg/kg; ED50 (mice [1]; ip, Example 2, intraperitoneal, sesame oil solution, 2 hours after dosing, ten mice/group, read-out: effective dose to prevent convulsions in half the animals (ED50)): 51 mg/kg; ED50 (mice [1]; ip, Example 2, intraperitoneal, sesame oil solution, 3 hours after dosing, ten mice/group, read-out: effective dose to prevent convulsions in half the animals (ED50)): 70 mg/kg; ED50 (mice [1]; Example 2, oral, sesame oil solution, 1 hour after dosing, ten mice/group, read-out: effective dose to prevent convulsions in half the animals (ED50)): 86 mg/kg; ED50 (mice [1]; Example 2, oral, sesame oil solution, 2 hours after dosing, ten mice/group, read-out: effective dose to prevent convulsions in half the animals (ED50)): 82 mg/kg; ED50 (mice [1]; Example 2, oral, sesame oil solution, 3 hours after dosing, ten mice/group, read-out: effective dose to prevent convulsions in half the animals (ED50)): 90 mg/kg
C[Si](C)(O)c1ccccc1 [drawing 8; R1=CH3; R2=CH3; X=OH]	118	135	110	33.3	2.7		
CC[Si](O)(O)c1ccccc1 [drawing 10; R1=C2 H5; X=OH]	120	160		100	1.7		
CC(C)O[Si](C)(OC(C)C)c1ccccc1 [drawing 10; R1=CH3; X=OCH(CH3)2]	94	84	41	33.3	1.8		
C=C[Si](OCC)(OCC)c1ccccc1 [drawing 10; R1=CHCH2; X=OC2 H5]	170	200	200	16.7	0.9		
CO[Si](OC)(OC)c1ccccc1 [drawing 12; X=OCH3]	560	300	160		1.3	n.p.	
